{"source": "paper PMC9430692", "about": "“BRET-Based Self-Cleaving Biosensors for SARS-CoV-2 3CLpro Inhibitor Discovery” (Microbiology Spectrum, 2022)", "origin": "cited, not measured here", "test_system": "SARS-CoV-2", "settings": "Vero E6 cells, MOI 0.01; ref [8]; read-out: Reported EC50 against SARS-CoV-2", "data": [{"smiles": "CC(C)(C)NC(=O)N[C@H](C(=O)N1C[C@H]2[C@@H]([C@H]1C(=O)NC(CC1CCC1)C(=O)C(N)=O)C2(C)C)C(C)(C)C", "note": "(stereo partly shown) [Boceprevir]", "values": [{"measurement": "EC50", "value": 15.6, "unit": "µM"}]}]}
